Results: US8541455B2, “Derivatives of 2-pyridin-2-yl-pyrazol-3(2H)-one, preparation and therapeutic use thereof as HIF activators” (Sanofi, priority 2008, dated 2013)

Assays:
[1] = test system: EPO secretion by Hep3B cells; test: Measurement of the secretion of EPO by Hep3B hepatocytes (ELISA on supernatant); assay type: cell-based; settings: Homo sapiens, 18 hours incubation under normoxia, EPO in supernatant, 50% of the maximum response of this same compound
From the text: (§1) 2. Measurement of the Secretion of VEGF and EPO by Hep3B Hepatocytes 2.1. Object
(§2) HIF is a transcription factor involved in the adaptation of cells to hypoxia. Since the genes activated by HIF are involved in the adaptive response of cells to hypoxia and of tissues to ischaemia, the object is to identify and characterize compounds that stabilize HIF1-alpha in cells in order to amplify or mimic its beneficial effect. HIF1-alpha was identified following the analysis of the EPO gene promoter, which makes this protein one of the first markers of HIF1-alpha activation. Moreover, VEGF is also identified in the literature as one of the main markers of HIF activation. It is for this reason that measurement of these two proteins was selected for characterizing compounds that are HIF activators in Hep3B cells.
(§3) The object was thus to develop a sensitive screening test, adaptable to 96-well plates, for directly measuring the amount of VEGF and EPO in the supernatant of the Hep3B cells (cells derived from a human hepatocarcinoma) in response to the potential HIF activators.
(§4) The test is an ELISA test for measuring VEGF and EPO in the supernatant of Hep3B cells treated under hypoxia or with deferoxamine as controls or with the potential HIF activators. The test was adapted to a 96-well plate, allowing greater compound screening capacity.
(§5) • 2.3.1 Experiment Plan • 1) Inoculation of the cells on D0 • 2) Adherence for 6 hours under normoxia • 3) Preparation and addition of the products (Biomek 2000 and FX) • 4) Incubation under normoxia for 18 hours • 5) EPO and VEGF assay in the supernatant on D+1 • 2.3.2 Inoculation of the Cells
(§6) The cells are subcultured into 100 μl of culture medium (10% FCS) in black, opaque-bottomed 96-well plates (reference Costar 3916) at 30 000 cells/well, with Multidrop. • 2.3.3 Treatment of the Cells
(§7) The test products are prepared at 10^−2 M in 100% DMSO and then diluted to […] in medium containing 0.1% FCS (6 μl in 194 μl of MEM). 200 μl of each compound are deposited in column 12 of a 96-well plate. Dilution ranges from […] to 3×10^−8M are prepared with Biomek 2000 (programme: range of 9 points in series). 100 μl of MEM 0.1% FCS and Deferoxamine 5×10^−3M are added as controls to column 3 and, respectively, to wells A,B,C,D and wells E,F,G,H • DL Plate Distribution in Cell Plates
(§8) The medium of the cells inoculated the day before into 96-well plates is changed for 90 μl of medium containing 0.1% FCS and 10 μl are distributed with FX 96 from the 96-well DL plates to the cell plates.
(§9) The cell plates thus treated are placed for 18 hours in an incubator at 37° C. (ambient O2, 6% CO2).
(§10) The supernatants (80 μl) of the Hep3B cells in the 96-well plates treated with the potential HIF activators are recovered with a multichannel pipette for simultaneous assay of the VEGF and the EPO by ELISA according to the supplier's instructions (Kit EPO Mesoscale (ref K15122B-2)).
(§11) The activating activity of a compound with respect to HIF is given by the concentration that produces 50% of the maximum response of this same compound in Table IV below.

HIF1-alpha = test: Measurement of the stabilization of HIF1-alpha in HEKEA cells (beta-galactosidase complementation, luminescence); assay type: cell-based, human; settings: HEKEA_HIF1-alphaPLBL cells, 6 hours incubation under normoxia; concentration that produces 50% of the maximum response of this same compound
From the text: Furthermore, a subject of the invention is also a uniform test process for the direct measurement by beta-galactosidase complementation of the amount of HIF1-alpha protein in the nucleus of cells, preferably HEK cells, after treating the said cells with one or more test compounds, which consists in: • (a) inoculating, preferably in 384-well plates, the said cells in a suitable culture medium, preferably 1% foetal calf serum (abbreviated as FCS); • (b) adding the test compound(s) at a suitable concentration in a suitable solvent to the cells previously inoculated in the said culture medium; preferably the test compounds are diluted in 0.1% FCS; • (c) incubating the said cells thus prepared in an indicator at about 37° C., advantageously for about 6 hours; • (d) lysing the cells with a lysis buffer containing a chemiluminescent substrate for beta-galactosidase; • (e) incubating in the absence of light, before reading and measuring the luminescence, which is a function of the beta-galactosidase activity.
Many tests exist describing the indirect measurement of the activity of HIF via reporter gene systems (HRE-luciferase) or via the measurement of HIF-induced proteins (for example VEGF or EPO). Furthermore, the only tests that allow direct measurement of the amount of HIF1-alpha protein in cells are tests using antibodies, for instance Western blotting comprising phases of cell extraction (total lysates or nuclear extracts) that are consuming in terms of cells and time, thus limiting the compound screening capacity. The object was thus to develop a sensitive screening test, adaptable to 384-well plates, for directly measuring the amount of HIF1-alpha protein in the nucleus of cells. This test was established in HEK cells ([…]).
The test is a cell test based on the principle of enzyme complementation, the enzyme used herein being beta-galactosidase. HEKEA cells are HEK cells stably expressing, and restricted in their nucleus, mutant beta-galactosidase (omega fragment, also known as EA) (line sold by DiscoverX). This construct makes it possible to obtain beta-galactosidase activity only when the protein comprising the Prolabel complementation fragment has migrated into the nucleus.
The protein of interest comprising the Prolabel fragment is in this case an HIF1-alpha or HIF1-alpha mutated at the two prolines 402 and 564 replaced with alanines, is C-terminal fused via molecular biology (DiscoverX vector sold by Clontech) with the small complementation peptide fragment (Prolabel or ED, about 4 kDa). The vector coding for the chimeric protein HIF1-alpha_Prolabel is then transfected into HEKEA cells to obtain stable clones (HEKEA_HIF1-alphaPLBL).
The amount of C-terminal Prolabel-“labelled” HIF1-alpha protein obtained after treating the cells to hypoxia or compounds that are potentially HIF activators is measured by adding to the cells a lysis buffer containing a chemiluminescent substrate for beta-galactosidase.
The measurement of the beta-galactosidase activity will be proportional to the amount of Prolabel and thus of HIF1-alpha that has migrated into the nucleus of the cells.
• 1.3.1 Experiment Plan • 1) Inoculation of the cells on D0 • 2) Adherence for 24 hours under normoxia • 3) Preparation and addition of the products (Biomek 2000 and FX) on D+1 • 4) Incubation under normoxia for 6 hours • 5) Reading of the plates (by luminescence)
The cells are inoculated with Multidrop in white, opaque-bottomed 384-well plates (Greiner ref 3704), in 30 μl of culture medium (1% FCS) at 10 000 cells/well (cell plate). • 1.3.3 Treatment • Preparation of the Dilution Plate (DL Plate)
The test products are prepared at 3×10^−2 M in 100% DMSO and then diluted to 3×10^−4 M in medium containing 0.1% FCS (10 μl in 990 μl of MEM). They are then deposited by hand into column 12 of a round-bottomed 96-well plate (200 μl of each compound) known as the dilution plate (dl). […]

[2] = test system: VEGF secretion by Hep3B cells; test: Measurement of the secretion of VEGF by Hep3B hepatocytes (ELISA on supernatant); assay type: cell-based; settings: Homo sapiens, 18 hours incubation under normoxia, VEGF in supernatant, 50% of the maximum response of this same compound
From the text: as §1, §2, §3, §4, §5, §6, §7, §8, §9, §10, §11

Compound	EC50 (HIF1-alpha) [µM]	melting point [°C]	EC50 [1] [µM]	EC50 [2] [µM]
CCN(c1ccccc1)S(=O)(=O)c1ccc(-n2[nH]c(C)c(Cc3ccc(OC)cc3)c2=O)nc1 [Compound 54, N-ethyl-6-[4-(4-methoxybenzyl)-3-methyl-5-oxo-2,5-dihydro-1H-pyrazol-1-yl]-N-phenylpyridine-3-sulfonamide]	6.4	188	0.45	0.3
CCN(c1ccccc1)S(=O)(=O)c1ccc(-n2[nH]c(C)c(Cc3ccc(O)cc3)c2=O)nc1 [Compound 48]	4.3	208	1.1	1.9
CCN(c1ccccc1)S(=O)(=O)c1ccc(-n2[nH]c(COC)c(Cc3ccccc3)c2=O)nc1 [Compound 82]	1.5	158	1	1.2
CCN(c1ccccc1)S(=O)(=O)c1ccc(-n2[nH]c(C(F)(F)F)c(Cc3ccccc3)c2=O)nc1 [Compound 83, 6-(4-benzyl-5-oxo-3-trifluoromethyl-2,5-dihydro-1H-pyrazol-1-yl)-N-ethyl-N-phenylpyridine-3-sulfonamide]	3.3	186	1.4	1.3

Now from value to molecule, other results behind:

EC50 (HIF1-alpha) [µM]	melting point [°C]	Compound	EC50 [1] [µM]	EC50 [2] [µM]
0.86	158	CCN(c1ccccc1)S(=O)(=O)c1ccc(-n2[nH]c(C)c(CCCc3ccccc3)c2=O)nc1 [Compound 92]	0.5	0.5
1.5	180	CCCc1[nH]n(-c2ccc(S(=O)(=O)N(CC)c3ccccc3)cn2)c(=O)c1Cc1ccccc1 [Compound 68, 6-(4-benzyl-5-oxo-3-propyl-2,5-dihydro-1H-pyrazol-1-yl)-N-ethyl-N-phenylpyridine-3-sulfonamide]	0.4	0.5
0.88	138	CCN(c1ccccc1)S(=O)(=O)c1ccc(-n2[nH]c(CC(C)C)c(Cc3ccccc3)c2=O)nc1 [Compound 88]	0.3	0.4
